Data set [1] concerns three TNBC models. The arrangement: method as in Investigator's Brochure. Particulars: ref Investigator's Brochure, read-out: overall mean IC50, colony formation; cited from earlier work.
The subject of data set [2] is R/R DLBCL. The experiment in a line: Tumor response (International Working Group criteria), PFS and OS in phase I study, part B. The format is in vivo, human. As for the experimental part: Secondary objectives were the preliminary efficacy of trotabresib in terms of clinical benefit rate (CR + PR + SD of ≥4 months’ duration), ORR (CR + PR), duration of response or SD, PFS, OS, and the PK of trotabresib. In addition, part C assessed the effects of food on the PK and the safety of trotabresib as a secondary objective. The pharmacodynamics of trotabresib were assessed as an exploratory objective.
Response was assessed using Response Evaluation Criteria in Solid Tumors (RECIST) v1.1[54] in patients with solid tumors, International Working Group criteria in patients with DLBCL[55], and Response Assessment in Neuro-Oncology (RANO) criteria[56] in patients with CNS tumors (astrocytoma and glioblastoma). For patients with BCC, the response was assessed using a combination of radiological assessment of target lesions per RECIST v1.1, digital clinical photography assessed per World Health Organization (WHO) criteria, and punch biopsies to confirm CR. PK parameters assessed included Cmax, tmax, AUC, t½, apparent clearance (CL/F), and apparent volume of distribution (Vz/F).
Bayesian logistic regression model based on dose-limiting toxicity was used to provide initial guidance for dose recommendations in the dose-escalation phase. The final decision was reached by considering the totality of safety, PK, and PD data. For binary efficacy endpoints, two-sided 95% Clopper–Pearson exact confidence intervals were provided. For time-to-event endpoints (PFS and OS), the median and 95% CI were estimated using the Kaplan–Meier method.

Details of data set [3]: method as in Unpublished data from Celgene Corporation. Conditions: after final dose, ref Unpublished data from Celgene Corporation, cited from earlier work.
The nature of data set [4]: Prediction of human PK and exposure by allometric scaling; HED calculation. From the text: Protocol CC- 90010- ST-001 Celgene Corporation
Figure 3: CC- 90010- mediated Tumor Growth Inhibition of GBM3 (Glioblastoma Multiforme Patient-derived Xenograft) with and without Temozolomide […]
BID = twice daily; IP = investigational product (CC-90010); PO = by mouth; QD = once daily; SEM = standard […]
Source: Unpublished data from Celgene Corporation.
1.2.2. Nonclinical Pharmacokinetics and Drug Metabolism
In vitro and in vivo studies have been conducted to characterize the absorption, PK, distribution, metabolism and elimination of CC-90010. Robust and reproducible bioanalytical methods for the quantitation of CC-90010 levels were developed and used in PK and toxicokinetic studies.
Human PK parameters and exposures were predicted using allometric scaling.
Pharmacokinetics and oral bioavailability of CC-90010 were evaluated in Sprague-Dawley rats […]
clearance than females. […]
The metabolism of CC-90010 was evaluated in vitro using hepatocytes from various species (mouse, rat, rabbit, dog, monkey, and human). […]
Based on the doses and exposures at which the principal treatment-related effects occurred in the GLP-compliant, 4-week rat and dog studies, both species are considered of similar sensitivity to the toxicities associated with CC-90010 administration. […] This CC-90010 dose was calculated using the approach described in the ICH S9 Guideline entitled “Nonclinical Evaluation for […]

The test system of data set [5] is OCI-LY-10 (DOX-R). Also noted: method as in Report CC-90010-Pharm-1018. Particulars: Table 2, ref Report CC-90010-Pharm-1018, read-out: absolute IC50, proliferation; cited from earlier work.
For data set [6], the system named is CYP2C9. Also noted: method as in Investigator's Brochure. Particulars: CYP2C9, ref Investigator's Brochure; read-out: IC50, direct inhibition; cited from earlier work.
Setting [7] is: part B R/R DLBCL (N = 23), treated population.

Values joined by “and” are separate entries in the source; they are usually repeats but may differ in a detail not shown here. Equal values may be shown once. Read-outs that look alike come from different tables or passages of the source.

The values below come from article PMC10011554, “BET inhibitor trotabresib in heavily pretreated patients with solid tumors and diffuse large B-cell lymphomas” (Nature Communications, 2023).

For the molecule `Cn1cc(-c2cc(S(C)(=O)=O)ccc2OCC2CC2)c2ccccc2c1=O` [trotabresib], the IC50 in data set [1] was 110 ± 40 nM. For the same molecule, in data set [2] (one patient with GCB immunophenotype R/R DLBCL, after two cycles), the “reduction in target lesion size” value came to 57%. In addition, in data set [2] (part B DLBCL (n = 23)), the “Median OS (95% CI)” value was 159 days and 159 (101–NE) days; the “Median PFS (95% CI)” value is 54 (49–65) days; the OS range is 44 to 423 days; the PFS range was 12 to 423 days. Further, in data set [2] (part B R/R DLBCL (N = 23)), the “best response CR” value was 8.7%, the “best response PD” value is 43.5%, the “best response PR” value amounted to 4.3% and the “best response SD” value is recorded as 8.7%. Besides, in data set [2] (setting [7]), the CBR was found to be 17.4% and the ORR came to 13.0%. For the same molecule, the total treatment duration in data set [2] (part B, one patient with transformed DLBCL, ongoing at cycle 17) came to 1.6 years. Besides, the “AUC0-24hr, steady state” value in data set [3] (12.5 mg/kg) is 12,003 ng·hr/mL. The “AUC0-24hr, steady state” value in data set [3] (16 mg/kg) is reported as 15,174 ng·hr/mL. For the same molecule, in data set [4] (from dog HNSTD), the HED is 2.1 mg base/kg. Also, the HED in data set [4] (from rat STD10) is 3.2 mg base/kg. For the same molecule, in data set [5], the IC50 was 1100 nM. In data set [6], the IC50 is ≥ 13900 nM.
